# Biological target: LBAA glyphosate oxidoreductase variant v.247 (v1v2v3: GLY84, ARG153, ARG334), SEQ ID NO:18 (Ochrobactrum sp. G-1, UniProt D2KI28, H334R/K153R/S2A/S84G)
# Assay: Kinetic analysis of glyphosate oxidoreductase variant v.247
# Format: biochemical, bacterial isolate LBAA (Pseudomonas strain LBAA)
# Protocol: The mutagenesis procedure used was that of Mn++-poisoned PCR and the template was a linearized glyphosate oxidoreductase gene plasmid containing the synthetic glyphosate oxidoreductase gene (SEQ ID NO:8). The oligonucleotide primers used were homologous to regions in the vector and flanking the glyphosate oxidoreductase gene. The PCR conditions employed were as follows: 1 minute at 94° C., 2 minutes at 55° C., and 3 minutes at 72° C. and with 35 cycles. A 5:1 ratio of dCTP+dGTP+TTP to dATP was used. The reactions contained MnCl2 at 125, 250, 375, or 500 μM. After the reaction, the amplified product was recloned into a vector containing a weak E. coli promoter. This vector was a pBR327 derivative containing the araBAD promoter and suitable cloning sites. One hundred colonies from this cloning step were then screened in E. coli GB993 for improved glyphosate tolerance and utilization phenotypes in media composed of MOPS minimal medium with glyphosate and Pi or with glyphosate alone, respectively. Growth rates were determined by measuring A550 over a 96 hour period. […] The glyphosate oxidoreductase gene was recloned into the expression vector portion and this phenotype verified. All kinetic analysis was performed on crude E. coli lysates. Putative glyphosate oxidoreductase variant proteins were overexpressed after subcloning the NcoI/HindIII variant glyphosate oxidoreductase gene into PrecA-gene10L expression vector. For overexpression in PrecA-gene10L constructs, GB993 cells containing the vector were induced at a Klett=110-120 in M9 minimal medium with 50 μg/ml nalidixic acid and allowed to grow for 2.5 hours at 37° C. with vigorous shaking. Cells were harvested by centrifugation at 4000 g, 5 minutes at 4° C., and resuspend in 100 mM Tris-HCl, pH 7.1, 1 mM EDTA, 35 mM KCl, 20% glycerol, and 1 mM benzamidine at 3 ml/g cell pellet. Lysates were prepared by breaking the cells in a French press, twice, at 1000 psi. Insoluble debris was removed by centrifugation at 12000 g, 15 minutes at 4° C., and the supernatant was de-salted by passing over a PD-10 column (Sephadex G-25, Pharmacia). The void volume fraction was used as the source of enzyme for kinetic analysis. Protein concentrations were determined using the Bio-Rad protein dye-binding assay. Time and enzyme concentration courses were performed to determine linear ranges. […] Ten minutes was determined to be the optimal time for the enzyme assay using 10 μg lysate. After 10 minutes at 30° C. with shaking, 0.25 ml dinitrophenylhydrazine (DNPH) reagent (0.5 mg/ml in 0.5M HCl) was added and the reaction was allowed to proceed for an additional 5 minutes at 30° C. with shaking. A 1.5M NaOH solution (400 μl) was then added to the assay mix, and the reaction was continued for 5 minutes at 30° C. with shaking. Enzyme activity was determined from the amount of glyoxylate-DNPH adduct formed by measuring A520 against a standard of glyoxylate. Enzyme assays are performed in duplicate on at least two different single colony isolates of a putative glyphosate oxidoreductase variant. To determine Km and Vmax, enzyme assays were performed over a (0.2-2.0)×Km range of glyphosate concentrations. The Km and Vmax were determined from Lineweaver Burk, Eadie-Hofstee and hyperbolic kinetic plots. Vmax was estimated after determining the amount of immunoreactive glyphosate oxidoreductase protein in lysates by immunoblot analysis as described below. Immunoblot analysis was performed following SDS-PAGE and transfer of protein from the gel to nitrocellulose at 500 mA in a Hoeffer transfer apparatus in 25 mM Tris-HCl, 192 mM glycine containing 0.1% SDS and 25% methanol for 1-2 hours. After transfer, the nitrocellulose was incubated with 50 mM Tris-HCl, pH7.5, 0.9% NaCl, 0.01% Tween 20, 0.02% NaN3 containing 2% bovine serum albumin at room temperature with shaking for at least 30 minutes. […]
smiles,measurement,setting,value
"O=C(O)CNCP(=O)(O)O [glyphosate, N-phosphonomethyl-glycine]",VmKm,"domain switch experiment, v.247 (v1v2v3), substrate glyphosate",0.34
same,VmKm (Glyp),v.247,.23
same,lower Km for glyphosate than the wild type glyphosate oxidoreductase,v.247 versus wild type,10 fold
same,app Vm (Glyp),"v.247, pH 7.4, 30° C.",0.6 U/mg

# Reference: patent publication USRE38825E1, “Glyphosate tolerant plants” (Monsanto Technology LLC, priority 1990, dated 2005)
